In ChEMBL document CHEMBL1201862, “PubChem BioAssay data set” (2004):
Activity calls are given as the source filed them.

What was measured:
[1] = decrease of insulin promoter-GFP reporter – imaging, high-content screening, mouse beta cells (AID 1628); format: functional; conditions: MIN6
[2] = MIN6 cell viability loss – mouse insulinoma, cytotoxicity control, dose response (AID 2122); format: functional;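 note: confirmatory high-throughput counterscreen run to flag cytotoxic compounds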
[3] = viability of uninfected HEp-2 cells – cell-based, HTS, cytotoxicity control for RSV inhibitor project, dose response (AID 2410); format: functional; conditions: human respiratory syncytial virus
[4] = Trypanosoma cruzi growth suppression in host cells – NIH3T3 host cells, beta-gal luminescence, confirmation (AID 2044); format: functional, cell-based;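 note: intracellular parasites grown in NIH/3T3 mouse fibroblasts as host cells; luminescent beta-galactosidase reporter signal from transgenic T. cruzi replicating inside host cells; inhibitors lower the luminescence signal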
[5] = NIH3T3 cell viability loss – ATP luminescence, mouse fibroblasts, counter-screen, dose response (AID 2010); format: functional, cell-based;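 note: cells exposed to compound for about 90 hours before reading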

Cc1ccc(-c2noc(CCC(=O)NCCCN3CCN(c4ccc(F)cc4)CC3)n2)cc1
IC50 [1]: 3.28 µM (active)
IC50 [2]: 3.21 µM (active)

N=c1ccn(Cc2cccc(Cl)c2)cc1
IC50 [1]: 3.15 µM (active)
IC50 [2]: 3.41 µM (active)

COc1cc(-c2nn3c(-c4ccccc4)nnc3s2)cc(OC)c1OC
IC50 [1]: 3.22 µM (active)
IC50 [2]: > 16 µM (inactive)

O=C(NCc1cn(-c2ccccc2)nc1-c1ccc(F)cc1)c1cccc([N+](=O)[O-])c1
CC50 [3]: 28.1 µM (active)
IC50 [1]: 2.91 µM (active)
IC50 [2]: 4.31 µM (active)
EC50 [4]: 0.805 µM (active)
EC50 [5]: > 60 µM (not active)
